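How tested: cells in 96-well plates exposed to compound for 48 hours at five concentrations. GI50: concentration for 50% inhibition of growth.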 Calls of active or inactive are those of the source. No stated cut-off is given here; in the data, active = GI50 up to about 1.1 µM and inactive = higher.
How the values were obtained:
Assay in all cases: NCI tumour cell line growth inhibition, 48 h
K562 = system: K562
BT-549 = system: BT-549
CAKI-1 = system: CAKI-1
UACC-62 = system: UACC-62
SK-MEL-28 = system: SK-MEL-28
U-251 = system: U-251
T47D = system: T47D
RPMI-8226 = system: RPMI-8226
HOP-92 = system: HOP-92
HL-60 = system: HL-60
CCRF-CEM = system: CCRF-CEM
UO-31 = system: UO-31
OVCAR-4 = system: OVCAR-4
COLO 205 = system: COLO 205
NCI/ADR-RES = system: NCI/ADR-RES
Hs-578T = system: Hs-578T
OVCAR-5 = system: OVCAR-5
NCI-H23 = system: NCI-H23
A549 = system: A549
PC-3 = system: PC-3

SMILES | GI50 (K562) | GI50 (BT-549) | GI50 (CAKI-1) | GI50 (UACC-62) | GI50 (SK-MEL-28) | GI50 (U-251) | GI50 (T47D) | GI50 (RPMI-8226) | GI50 (HOP-92) | GI50 (HL-60) | GI50 (CCRF-CEM) | GI50 (UO-31) | GI50 (OVCAR-4) | GI50 (COLO 205) | GI50 (NCI/ADR-RES) | GI50 (Hs-578T) | GI50 (OVCAR-5) | GI50 (NCI-H23) | GI50 (A549) | GI50 (PC-3)
O=C1C[C@H](COCc2ccccc2)NC(=O)C[C@H](COCc2ccccc2)NC(=O)C[C@H](COCc2ccccc2)N1 | 3.52 µM (inactive) | 41.6 µM (inactive) | > 100 µM (inactive) | > 100 µM (inactive) | > 100 µM (inactive) | 12.6 µM (inactive) | 62.2 µM (inactive) | > 100 µM (inactive) | 12.2 µM (inactive) | 92.7 µM (inactive) | > 100 µM (inactive) | > 100 µM (inactive) | > 100 µM (inactive) | > 100 µM (inactive) | > 100 µM (inactive) | 39.9 µM (inactive) | > 100 µM (inactive) | 55.3 µM (inactive) | > 100 µM (inactive) | > 100 µM (inactive)
NC1=NCC(CN2CCOCC2)O1 (stereo not given) | > 100 µM (inactive) | > 100 µM (inactive) | > 100 µM (inactive) | > 100 µM (inactive) | > 100 µM (inactive) | > 100 µM (inactive) | > 100 µM (inactive) | > 100 µM (inactive) | > 100 µM (inactive) | > 100 µM (inactive) | > 100 µM (inactive) | > 100 µM (inactive) | > 100 µM (inactive) | > 100 µM (inactive) | > 100 µM (inactive) | > 100 µM (inactive) | > 100 µM (inactive) | > 100 µM (inactive) | > 100 µM (inactive) | > 100 µM (inactive)
C=C1c2ccccc2Oc2nc3nc(N)c(C#N)c(N)c3c(N)c21 | 40.7 µM (inactive) | 39.9 µM (inactive) | 30.8 µM (inactive) | 35.7 µM (inactive) | 41.8 µM (inactive) | 30.2 µM (inactive) | 51.1 µM (inactive) | 24.4 µM (inactive) | 55.2 µM (inactive) | 21.6 µM (inactive) | 23.7 µM (inactive) | 25.2 µM (inactive) | 42.6 µM (inactive) | 19.6 µM (inactive) | 28.4 µM (inactive) | 21.9 µM (inactive) | 85.5 µM (inactive) | 18 µM (inactive) | 30.1 µM (inactive) | 19.3 µM (inactive)
CNC(=S)N/N=C(\C)c1ccc(OC)cc1O | 0.7 µM (active) | > 100 µM (inactive) | > 100 µM (inactive) | > 100 µM (inactive) | > 100 µM (inactive) | > 73.5 µM (inactive) | > 100 µM (inactive) | > 32 µM (inactive) | > 100 µM (inactive) | 0.841 µM (active) | 0.865 µM (active) | > 100 µM (inactive) | 28.1 µM (inactive) | 0.258 µM (active) | 28.8 µM (inactive) | > 89.9 µM (inactive) | > 100 µM (inactive) | > 100 µM (inactive) | > 100 µM (inactive) | > 100 µM (inactive)
O=C1N/C(=N\N=C\c2ccccc2)C2(CCCCC2)O1 | 35 µM (inactive) | > 100 µM (inactive) | 84.9 µM (inactive) | > 100 µM (inactive) | > 100 µM (inactive) | 77.8 µM (inactive) | > 100 µM (inactive) | 53.5 µM (inactive) | > 100 µM (inactive) | 32.9 µM (inactive) | 17.8 µM (inactive) | 43.1 µM (inactive) | > 100 µM (inactive) | 93.1 µM (inactive) | 42.5 µM (inactive) | 46.8 µM (inactive) | > 100 µM (inactive) | > 100 µM (inactive) | 54.5 µM (inactive) | 80.4 µM (inactive)
COC(=O)Nc1nc2cc(S(=O)(=O)N3CCOCC3)ccc2[nH]1 | 44.7 µM (inactive) | > 100 µM (inactive) | > 100 µM (inactive) | > 100 µM (inactive) | 49.7 µM (inactive) | > 100 µM (inactive) | > 100 µM (inactive) | 30.3 µM (inactive) | > 100 µM (inactive) | 6.21 µM (inactive) | 52.8 µM (inactive) | > 100 µM (inactive) | > 100 µM (inactive) | > 100 µM (inactive) | > 100 µM (inactive) | > 100 µM (inactive) | > 100 µM (inactive) | > 100 µM (inactive) | > 100 µM (inactive) | > 100 µM (inactive)
